In patent US6566140B2, “Inhibition of coagulation in blood and blood products” (University of Vermont and State Agriculture College, priority 1998, dated 2003):
Several values for one entry are separate records, joined by “and”; a condition that tells them apart may be missing. Identical values can stand only once. Entries after “also recorded” stand apart in the source; their conditions may differ.

Experiments:
aPTT = aPTT of blood exposed to antithrombotic and antiplatelet agents; format: biochemical, human
Description: Blood was harvested between 0900 and 1200 hours. Phlebotomies were performed with 19 gauge butterfly needles and a two syringe technique with which the first three ml of blood were discarded. […] The concentrations of heparin, enoxaparin and abciximab were chosen to simulate those attained in clinical practice and equivalent anti-IIa and anti-Xa concentrations of hirudin and rTAP -were chosen. Final volumes were 1 part anticoagulant to 9 parts blood.

[1] = system: tissue factor initiated clotting in whole blood; test: tissue factor dependent clotting assay in minimally altered whole blood, contact pathway suppressed with CTI, Hemochron ACT instrument; format: cell-based, human
Excerpt: This assay uses an anti-coagulation sufficient amount of CTI to inhibit clotting in minimally altered whole blood. The assay is more particularly referred to herein as “tissue factor dependent clotting assay” or similar phrase. The assay is particularly useful for monitoring coagulation in whole or minimally altered whole blood. As an example, the assay is especially useful as a novel bedside tool that permits improved therapuetic assessment including standard antithrombotic and antiplatelet therapies. The assay should also facilitate improved dose selection, titration and monitoring of multicomponent antithrombotic, antiplatelet, and fibrinolytic treatment.
Blood samples were obtained from healthy individuals and the contact pathway of coagulation was inhibited with corn trypsin inhibitor(a specific factor XIIa inhibitor without effect on other coagulation factors.). Clotting was initiated with relipidated tissue factor and detected with a Hemochron ACT instrument. Results were reproducible with samples from 20 healthy volunteers (mean time to clot=118±9 seconds). In other studies, blood was exposed to pharmacologic concentrations of antithrombotic and antiplatelet agents in vitro. […] Additive effects of antiplatelet agents were readily detectable in contrast to the case with aPTT assays. Thus, addition of 3 μg/ml abciximab to 0.1 anti-IIa/Xa U/ml of heparin and to 0.4 anti-Xa U/ml of enoxaparin prolonged the times to clot by 62 and 52 seconds, respectively (p<0.05 for each).
Blood was harvested between 0900 and 1200 hours. Phlebotomies were performed with 19 gauge butterfly needles and a two syringe technique with which the first three ml of blood were discarded. Blood samples were drawn into syringes containing corn trypsin inhibitor (CTI, Enzyme Research Laboratories, South Bend, Ind.) alone in concentrations ranging from 32 to 300 μg/ml or in combination with selected pharmacologic concentrations of heparin (0.1, 0.25 and 0.4 anti-IIa/Xa U/ml), enoxaparin (0.4 and 0.8 anti-Xa U/ml, Rhone-Poulenc Rorer), hirudin ([…], Sigma), recombinant tick anticoagulant peptide (rTAP, 0.4 anti-Xa U/ml, kindly provided by Corvass International), or abciximab (3 μg/ml, Eli Lilly). The concentrations of heparin, enoxaparin and abciximab were chosen to simulate those attained in clinical practice and equivalent anti-IIa and anti-Xa concentrations of hirudin and rTAP -were chosen. Final volumes were 1 part anticoagulant to 9 parts blood.
A 400 μl aliguot of blood was added to a K-resin ACT tube kindly provided by International Technidyne without the glass beads traditionally used to activate the contact pathway. Lipidated tissue factor (1-60 pM, American Diagnostica, Greenwich, Conn.) was added to K-resin tubes before addition of blood.
The K-resin tubes containing tissue factor and blood were placed promptly in a Hemochron ACT instrument. The time to clot was detected by the displacement of a dependent magnet within the rotating tube when fibrin strands formed. The blood was maintained at 37° C. throughout the assay procedure.

[2] = abciximab 3 μg/ml added to 0.1 anti-IIa/Xa U/ml heparin
[3] = abciximab 3 μg/ml added to 0.4 anti-Xa U/ml enoxaparin

enoxaparin
effect on the aPTT (aPTT; enoxaparin 0.4 and 0.8 anti-Xa U/ml): increased with increasing concentrations | effect on the aPTT (aPTT; enoxaparin 0.4 and 0.8 anti-Xa U/ml, listed as Enoxaparin): prolonged | increase of the aPTT (aPTT; enoxaparin 0.4 anti-Xa U/ml): 15 s | effect on the time to clot ([1]; enoxaparin 0.4 and 0.8 anti-Xa U/ml, 200 μg/ml CTI, 20 pM tissue factor): increased with increasing concentrations | effect on the time to clot ([1]; enoxaparin 0.4 and 0.8 anti-Xa U/ml, 200 μg/ml CTI, 20 pM tissue factor, listed as Enoxaparin): prolonged | increase of the time to clot ([1]; enoxaparin 0.4 anti-Xa U/ml): 46 s

heparin
increase of the aPTT (aPTT; heparin 0.1 anti-IIa/Xa U/ml): 34 s | effect on the aPTT (aPTT; heparin 0.25 and 0.4 anti-IIa/Xa U/ml): prolonged with increasing concentrations | effect on the aPTT (aPTT; heparin 0.25 and 0.4 anti-IIa/Xa U/ml, listed as Heparin): prolonged | increase of the time to clot ([1]; heparin 0.1 anti-IIa/Xa U/ml): 41 s | effect on the time to clot ([1]; heparin 0.25 and 0.4 anti-IIa/Xa U/ml, 200 μg/ml CTI, 20 pM tissue factor): prolonged with increasing concentrations | effect on the time to clot ([1]; heparin 0.25 and 0.4 anti-IIa/Xa U/ml, 200 μg/ml CTI, 20 pM tissue factor, listed as Heparin): prolonged

hirudin
prolongation of the aPTT (aPTT; hirudin 0.4 anti-IIa U/ml): 3 s | effect on the aPTT (aPTT; hirudin 0.4 anti-IIa U/ml (versus 0.8 U/ml)): significantly prolonged only with the higher concentration; also recorded: detected only with 0.8 U/ml; also recorded: not affected | effect on the aPTT (aPTT; hirudin 0.4 anti-IIa U/ml (versus 0.8 U/ml), listed as Hirudin): without prolonging the aPTT | prolongation of the aPTT (aPTT; hirudin 0.8 U/ml): 16 s | effect on the time to clot ([1]; hirudin 0.4 and 0.8 anti-IIa U/ml, 200 μg/ml CTI, 20 pM tissue factor): prolonged the time to clot at each concentration tested | prolongation of the time to clot ([1]; hirudin 0.4 anti-IIa U/ml, 200 μg/ml CTI, tissue factor initiated): 21 s | prolongation of the time to clot ([1]; hirudin 0.8 U/ml, 200 μg/ml CTI, 20 pM tissue factor): 37 s

rTAP: recombinant tick anticoagulant peptide, a specific inhibitor of factor Xa (YNRLCIKPRDWIDECDSNEGGERAYFRNGKGGCDSFWICPEDHTGADYYSSYRDCFNACI; UniProt P17726 1-60, looked up)
effect on the aPTT (aPTT; rTAP 0.4 anti-Xa U/ml): no effect; also recorded: not affected | effect on the aPTT (aPTT; rTAP 0.4 anti-Xa U/ml, listed as tick anticoagulant peptide): without prolonging the aPTT | prolongation of the aPTT (aPTT; tick anticoagulant peptide 0.4 anti-Xa U/ml): 3 s | effect on the time to clot ([1]; rTAP 0.4 anti-Xa U/ml, 200 μg/ml CTI, 20 pM tissue factor): prolonged the time to clot | prolongation of the time to clot ([1]; rTAP 0.4 anti-Xa U/ml, 200 μg/ml CTI, tissue factor initiated): 229 s

B1: lipidated tissue factor: lipidated tissue factor (American Diagnostica), initiator of clotting (protein, UniProt P13726 33-295, looked up)
Tissue factor: SGTTNTVAAYNLTWKSTNFKTILEWEPKPVNQVYTVQISTKSGDWKSKCFYTTDTECDLTDEIVKDVKQTYLARVFSYPAGNVESTGSAGEPLYENSPEFTPYLETNLGQPTIQSFEQVGTKVNVTVEDERTLVRRNNTFLSLRDVFGKDLIYTLYYWKSSSSGKKTAKTNTNEFLIDVDKGENYCFSVQAVIPSRTVNRKSTDSPVECMGQEKGEFREIFYIIGAVVFVVIILVIILAISLHKCRKAGVGQSWKENSPLNVS
modifications: lipidated
notes: lipidated tissue factor (American Diagnostica), initiator of clotting
effect on the time to clot ([1]; lipidated tissue factor 1.0 to 60 pM, 12 subjects): concentration dependent decrease in the time to clot

B2: abciximab (antibody, chains of the INN, looked up, V domains shown)
VH: EVQLQQSGTVLARPGASVKMSCEASGYTFTNYWMHWVKQRPGQGLEWIGAIYPGNSDTSYIQKFKGKAKLTAVTSTTSVYMELSSLTNEDSAVYYCTLYDGYYVFAYWGQGTLVTVSA
VL: EIVLTQSPVTLSVTPGDSVSLSCRASRDISNNLHWFQQTSHESPRLLIKYASQSMSGIPSRFSGSGSGTDFTLSINSVETEDFGMYFCQQTNSWPYTFGGGTKLEIK
modifications: Fab
notes: commercially available monoclonal antibody against platelet glycoprotein gpIIb-IIIa
effect on the aPTT of adding abciximab to heparin (aPTT; [2]): not affected; also recorded: did not prolong further the aPTT; also recorded: did not affect the aPTT | effect on the aPTT of adding abciximab to enoxaparin (aPTT; [3]): not affected; also recorded: did not prolong further the aPTT | effect of the combination on the time to clot ([1]; 0.1 anti-IIa U/ml heparin with 3 μg/ml abciximab, 200 μg/ml CTI, 20 pM tissue factor): prolonged the time to clot compared with heparin alone | effect of the combination on the time to clot ([1]; 0.4 anti-Xa U/ml enoxaparin with 3 μg/ml abciximab, 200 μg/ml CTI, 20 pM tissue factor): prolonged the time to clot compared with enoxaparin alone | further prolongation of the time to clot compared with heparin alone [1, 2]: 62 s and 61 s | further prolongation of the time to clot compared with enoxaparin alone [1, 3]: 52 s | prolongation of the time to clot by the combination ([1]; abciximab 3 μg/ml and heparin in combination): 102 s
